Test results published in the NIST ThermoML archive (doi:10.1016/j.tca.2014.03.033).

Experiment: molar heat capacity at constant pressure
Settings: 101.33 kPa, Crystal, Vacuum adiabatic calorimetry

O=P([O-])([O-])[O-].O=P([O-])([O-])[O-].O=P([O-])([O-])[O-].[K+].[Th+4].[Th+4] [potassium dithorium trisphosphate]
Settings	molar heat capacity at constant pressure [J/K/mol]
4 K	0.316
5 K	0.395
6 K	0.4889
7 K	0.5352
8 K	0.4432
9 K	0.3222
10 K	0.3252
15 K	2.606
20 K	6.715
25 K	12.67
30 K	19.97
35 K	28.47
40 K	37.38
45 K	46.43
50 K	56.01
60 K	73.35
70 K	91.89
80 K	109.4
90 K	125.4
100 K	140
110 K	153.5
120 K	166.2
130 K	178
140 K	189.2
150 K	199.8
160 K	209.9
170 K	219.6
180 K	229
190 K	238.2
200 K	247.3
210 K	256
220 K	264.2
230 K	271.8
240 K	278.6
250 K	284.7
260 K	290.3
270 K	295.7
273.15 K	297.5
280 K	301.3
290 K	307.4
